Experimental data from patent US6737383B1, “Herbicidal oxadiazolidines” (priority 1999, dated 2004).

Assays:
[1] = test system: velvetleaf; assay: Test B pre/postemergence velvetleaf; assay type: in vivo, Abutilon theophrasti
Outline: (§1)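 Response is a visual 0-to-10 score relative to untreated plants, where 0 means no effect and 10 means complete control, taken twelve to sixteen days after application. Treatments went onto soil at planting and onto foliage of 1- to 4-leaf plants, using a surfactant-containing non-phytotoxic solvent.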

[2] = test system: rice; assay: Test B flood test rice; assay type: in vivo, Oryza sativa
Outline: (§2)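 Plants were grown to the 2-leaf stage before treatment with test chemical, then held in a greenhouse for twelve to sixteen days. Injury was visually rated against untreated controls on a 0–10 scale, where 0 is no effect and 10 is complete control.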

[3] = test system: bedstraw; assay: Test B pre/postemergence bedstraw; assay type: in vivo, Galium aparine
Outline: as §1

[4] = test system: surinam grass; assay: Test B pre/postemergence surinam grass; assay type: in vivo, Brachiaria decumbens
Outline: as §1

[5] = test system: giant foxtail; assay: Test B pre/postemergence giant foxtail; assay type: in vivo, Setaria faberii
Outline: as §1

[6] = test system: cocklebur; assay: Test B pre/postemergence cocklebur; assay type: in vivo, Xanthium strumarium
Outline: as §1

[7] = test system: wheat; assay: Test B pre/postemergence wheat; assay type: in vivo, Triticum aestivum
Outline: as §1

[8] = test system: wild oat; assay: Test B pre/postemergence wild oat; assay type: in vivo, Avena fatua
Outline: as §1

[9] = test system: corn; assay: Test B pre/postemergence corn; assay type: in vivo, Zea mays
Outline: as §1

[10] = test system: pigweed; assay: Test B pre/postemergence pigweed; assay type: in vivo, Amaranthus retroflexus
Outline: as §1

[11] = test system: rape; assay: Test B pre/postemergence rape; assay type: in vivo, Brassica napus
Outline: as §1

[12] = test system: sugar beet; assay: Test B pre/postemergence sugar beet; assay type: in vivo, Beta vulgaris
Outline: as §1

[13] = test system: morningglory; assay: Test B pre/postemergence morningglory; assay type: in vivo, Ipomoea hederacea
Outline: as §1

[14] = test system: soybean; assay: Test B pre/postemergence soybean; assay type: in vivo, Glycine max
Outline: as §1

[15] = test system: smallflower flatsedge; assay: Test B flood test smallflower flatsedge; assay type: in vivo, Cyperus difformis
Outline: as §2

[16] = test system: blackgrass; assay: Test B pre/postemergence blackgrass; assay type: in vivo, Alopecurus myosuroides
Outline: as §1

[17] = Preemergence, Rate 62 g/ha, scale of 0 to 10 where 0 is no effect and 10 is complete control
[18] = Preemergence, Rate 250 g/ha, scale of 0 to 10 where 0 is no effect and 10 is complete control
[19] = Preemergence, Rate 500 g/ha, scale of 0 to 10 where 0 is no effect and 10 is complete control
[20] = Rate 62 g/ha, Postemergence, scale of 0 to 10 where 0 is no effect and 10 is complete control
[21] = Rate 125 g/ha, Preemergence, scale of 0 to 10 where 0 is no effect and 10 is complete control
[22] = Rate 500 g/ha, Postemergence, scale 0 to 10, 0 no effect, 10 complete control
[23] = Rate 62 g/ha, headed Pre-emergence (flood test species), scale 0 to 10 (0 no effect, 10 complete control)
[24] = Rate 125 g/ha, Pre-emergence, flood test species, scale 0 to 10 where 0 is no effect and 10 is complete control
[25] = Rate 250 g/ha, Pre-emergence, flood-test species, scale 0 to 10, 0 is no effect, 10 is complete control
[26] = Rate 500 g/ha, Pre-emergence, flood test species, scale 0 to 10 (0 no effect, 10 complete control)
[27] = Rate 125 g/ha, Postemergence, scale 0 to 10

CC(C)N(C(=O)n1oc(=O)n(C2CC2)c1=O)c1ccccc1 [Compound 243]
Velvetleaf plant response rating [1, 17]: 4 | Velvetleaf plant response rating [1, 18]: 10 | Plant response rating, Velvetleaf [1, 19]: 10 | Velvetleaf plant response rating [1, 20]: 0 | Velvetleaf plant response rating [1, 21]: 6 | Velvetleaf plant response rating [1, 22]: 7 | Rice plant response rating [2, 23]: 0 | Rice plant response rating [2, 24]: 0 | Rice plant response rating [2, 25]: 0 | Rice plant response rating [2, 26]: 0 | Bedstraw plant response rating [3, 17]: 0 | Bedstraw plant response rating [3, 18]: 5 | Plant response rating, Bedstraw [3, 19]: 9 | Bedstraw plant response rating [3, 20]: 0 | Bedstraw plant response rating [3, 27]: 4 | Bedstraw plant response rating [3, 21]: 0 | Plant response rating (0 to 10; 0 is no effect, 10 is complete control), Bedstraw ([3]; Rate 250 g/ha, Postemergence): 5 | Bedstraw plant response rating [3, 22]: 5 | B. signalgrass plant response rating [4, 17]: 4 | B. signalgrass plant response rating [4, 18]: 7 | Plant response rating, B. signalgrass [4, 19]: 10 | B. signalgrass plant response rating [4, 20]: 0 | B. signalgrass plant response rating ([4]; Rate 125 g/ha, Postemergence, scale 0 (no effect) to 10 (complete control)): 4 | B. signalgrass plant response rating [4, 21]: 5 | Plant response rating (0 to 10; 0 is no effect, 10 is complete control), B. signalgrass ([4]; Rate 250 g/ha, Postemergence): 9 | B. signalgrass plant response rating [4, 22]: 9 | Giant foxtail plant response rating [5, 17]: 10 | Giant foxtail plant response rating [5, 18]: 10 | Plant response rating, Giant foxtail [5, 19]: 10 | Giant foxtail plant response rating [5, 20]: 3 | Giant foxtail plant response rating [5, 21]: 10 | Plant response rating (0 to 10; 0 is no effect, 10 is complete control), Giant foxtail ([5]; Rate 250 g/ha, Postemergence): 8 | Giant foxtail plant response rating [5, 22]: 8 | Cocklebur plant response rating [6, 17]: 0 | Cocklebur plant response rating [6, 18]: 0 | Plant response rating, Cocklebur [6, 19]: 5 | Cocklebur plant response rating [6, 20]: 0 | Cocklebur plant response rating [6, 27]: 2 | Cocklebur plant response rating [6, 21]: 0 | Plant response rating (0 to 10; 0 is no effect, 10 is complete control), Cocklebur ([6]; Rate 250 g/ha, Postemergence): 4 | Cocklebur plant response rating [6, 22]: 0 | Wheat plant response rating [7, 17]: 5 | Wheat plant response rating [7, 18]: 8 | Plant response rating, Wheat [7, 19]: 9 | Wheat plant response rating [7, 20]: 2 | Wheat plant response rating [7, 21]: 8 | Wheat plant response rating [7, 22]: 8 | Wild oats plant response rating [8, 17]: 3 | Wild oats plant response rating [8, 18]: 9 | Plant response rating, Wild oats [8, 19]: 9 | Wild oats plant response rating [8, 20]: 0 | Wild oats plant response rating [8, 21]: 6 | Wild oats plant response rating [8, 22]: 4 | Corn plant response rating [9, 17]: 2 | Corn plant response rating [9, 18]: 6 | Plant response rating, Corn [9, 19]: 9 | Corn plant response rating [9, 20]: 0 | Corn plant response rating [9, 27]: 2 | Corn plant response rating [9, 21]: 3 | Plant response rating (0 to 10; 0 is no effect, 10 is complete control), Corn ([9]; Rate 250 g/ha, Postemergence): 5 | Corn plant response rating [9, 22]: 7 | Redroot pigweed plant response rating [10, 17]: 6 | Redroot pigweed plant response rating [10, 18]: 10 | Plant response rating, Redroot pigweed [10, 19]: 10 | Redroot pigweed plant response rating [10, 20]: 2 | Redroot pigweed plant response rating [10, 21]: 9 | Plant response rating (0 to 10; 0 is no effect, 10 is complete control), Redroot pigweed ([10]; Rate 250 g/ha, Postemergence): 7 | Redroot pigweed plant response rating [10, 22]: 7 | Rape plant response rating [11, 17]: 0 | Rape plant response rating [11, 18]: 9 | Plant response rating, Rape [11, 19]: 10 | Rape plant response rating [11, 20]: 0 | Rape plant response rating [11, 21]: 5 | Plant response rating (0 to 10; 0 is no effect, 10 is complete control), Rape ([11]; Rate 250 g/ha, Postemergence): 2 | Rape plant response rating [11, 22]: 3 | Sugarbeets plant response rating [12, 17]: 2 | Sugarbeets plant response rating [12, 18]: 7 | Plant response rating, Sugarbeets [12, 19]: 10 | Sugarbeets plant response rating [12, 20]: 0 | Sugarbeets plant response rating [12, 21]: 3 | Sugarbeets plant response rating [12, 22]: 5 | Morningglory plant response rating [13, 17]: 2 | Morningglory plant response rating [13, 18]: 8 | Plant response rating, Morningglory [13, 19]: 10 | Morningglory plant response rating [13, 20]: 5 | Morningglory plant response rating [13, 21]: 3 | Plant response rating (0 to 10; 0 is no effect, 10 is complete control), Morningglory ([13]; Rate 250 g/ha, Postemergence): 7 | Morningglory plant response rating [13, 22]: 8 | Soybean plant response rating [14, 17]: 0 | Soybean plant response rating [14, 18]: 8 | Plant response rating, Soybean [14, 19]: 9 | Soybean plant response rating [14, 20]: 3 | Soybean plant response rating [14, 21]: 0 | Soybean plant response rating [14, 22]: 8 | S. Flatsedge plant response rating [15, 23]: 0 | S. Flatsedge plant response rating [15, 24]: 0 | S. Flatsedge plant response rating [15, 25]: 0 | S. Flatsedge plant response rating [15, 26]: 0 | Blackgrass plant response rating [16, 17]: 8 | Blackgrass plant response rating [16, 18]: 10 | Plant response rating, Blackgrass [16, 19]: 10 | Blackgrass plant response rating [16, 20]: 7 | Blackgrass plant response rating [16, 27]: 8 | Blackgrass plant response rating [16, 21]: 10 | Plant response rating (0 to 10; 0 is no effect, 10 is complete control), Blackgrass ([16]; Rate 250 g/ha, Postemergence): 9 | Blackgrass plant response rating [16, 22]: 9
